Experiment [1] addresses T1, Neuronal acetylcholine receptor subunit alpha-7 (Homo sapiens, UniProt P36544). In words: Inhibition of human alpha7 nAChR expressed in Xenopus laevis oocytes assessed as inhibition of ACh-evoked currents by two-electrode voltage clamp assay. In kind it is cell-based. On the technique in general: In two-electrode clamp one electrode senses voltage and the other passes current.

In experiment [2] the target is Neuronal acetylcholine receptor subunit alpha-7 (Rattus norvegicus, UniProt Q05941). In words: Inhibition of rat alpha7 nAChR.
Chain of Neuronal acetylcholine receptor subunit alpha-7 (Rattus norvegicus, UniProt Q05941) (Q05941 whole entry): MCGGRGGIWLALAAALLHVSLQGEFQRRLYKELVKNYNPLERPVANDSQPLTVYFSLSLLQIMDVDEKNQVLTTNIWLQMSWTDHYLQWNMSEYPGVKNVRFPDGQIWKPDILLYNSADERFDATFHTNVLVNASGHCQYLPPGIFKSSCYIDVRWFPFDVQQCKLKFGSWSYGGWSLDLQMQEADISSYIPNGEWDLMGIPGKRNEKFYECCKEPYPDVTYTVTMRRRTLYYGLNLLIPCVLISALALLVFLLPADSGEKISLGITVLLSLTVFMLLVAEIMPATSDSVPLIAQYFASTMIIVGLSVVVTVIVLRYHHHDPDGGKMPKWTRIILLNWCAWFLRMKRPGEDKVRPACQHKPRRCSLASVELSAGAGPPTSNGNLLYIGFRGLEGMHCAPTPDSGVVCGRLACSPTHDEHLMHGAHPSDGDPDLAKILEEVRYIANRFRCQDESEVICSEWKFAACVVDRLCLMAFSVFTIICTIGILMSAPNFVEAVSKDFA
For experiment [3], the target named is T2, Neuronal acetylcholine receptor; alpha9/alpha10 (Homo sapiens, UniProt Q9GZZ6+Q9UGM1). In words: Inhibition of human alpha9alpha10 nAChR expressed in Xenopus laevis oocytes assessed as inhibition of ACh-evoked currents by two-electrode voltage clamp assay. In kind it is cell-based.
T2 sequence (Q9UGM1 whole entry): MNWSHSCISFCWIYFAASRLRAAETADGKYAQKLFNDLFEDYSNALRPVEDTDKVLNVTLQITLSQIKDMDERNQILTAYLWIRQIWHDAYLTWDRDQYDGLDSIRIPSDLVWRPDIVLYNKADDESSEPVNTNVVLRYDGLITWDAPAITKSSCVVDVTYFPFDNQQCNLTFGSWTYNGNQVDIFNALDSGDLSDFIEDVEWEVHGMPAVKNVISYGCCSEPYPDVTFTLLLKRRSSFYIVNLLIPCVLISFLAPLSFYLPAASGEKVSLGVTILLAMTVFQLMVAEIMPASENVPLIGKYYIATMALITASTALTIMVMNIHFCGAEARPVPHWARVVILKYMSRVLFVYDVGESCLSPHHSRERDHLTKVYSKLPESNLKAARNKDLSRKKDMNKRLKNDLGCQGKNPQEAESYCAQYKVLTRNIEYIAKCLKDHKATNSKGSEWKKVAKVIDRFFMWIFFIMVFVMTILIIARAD
T2 sequence (Q9GZZ6 whole entry): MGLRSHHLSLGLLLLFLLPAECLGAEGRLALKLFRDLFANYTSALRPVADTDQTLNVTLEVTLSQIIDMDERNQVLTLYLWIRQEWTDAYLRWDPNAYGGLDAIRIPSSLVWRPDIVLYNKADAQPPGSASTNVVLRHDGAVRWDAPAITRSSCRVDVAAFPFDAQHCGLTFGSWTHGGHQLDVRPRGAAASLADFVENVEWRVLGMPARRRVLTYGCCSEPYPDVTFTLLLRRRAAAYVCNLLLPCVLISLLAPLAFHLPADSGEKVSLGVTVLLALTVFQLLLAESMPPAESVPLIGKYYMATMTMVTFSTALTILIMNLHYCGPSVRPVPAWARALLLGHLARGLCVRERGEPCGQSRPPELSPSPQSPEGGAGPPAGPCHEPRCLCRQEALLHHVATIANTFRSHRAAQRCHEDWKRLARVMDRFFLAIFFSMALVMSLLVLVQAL
The target in experiment [4] is T3, Neuronal acetylcholine receptor; alpha9/alpha10 (Homo sapiens) (UniProt Q9UGM1+Q9GZZ6). Kind of experiment: Reversible inhibition of human alpha9alpha10 nAChR expressed in Xenopus laevis oocytes assessed as inhibition of ACh-evoked currents by two-electrode voltage clamp assay. In kind it is cell-based.
Experiment [5] deals with T1, Neuronal acetylcholine receptor subunit alpha-7. Kind of experiment: Reversible inhibition of human alpha7 nAChR expressed in Xenopus laevis oocytes assessed as inhibition of ACh-evoked currents by two-electrode voltage clamp assay. In kind it is cell-based.
Experiment [6] has the same target. In words: Inhibition of human alpha7 nAChR expressed in Xenopus laevis oocytes assessed as inhibition of ACh-evoked currents at 1 uM by two-electrode voltage clamp assay relative to control. In kind it is cell-based.
Experiment [7] deals with T2, Neuronal acetylcholine receptor; alpha9/alpha10. In words: Inhibition of human alpha9alpha10 nAChR expressed in Xenopus laevis oocytes expressing alpha9:alpha10 mRNA injection ratio of 1:3 assessed as inhibition of ACh-evoked currents by two-electrode voltage clamp assay. In kind it is cell-based.
The target of experiment [8] is T4, Neuronal acetylcholine receptor; alpha3/beta2 (Homo sapiens) (UniProt P17787+P32297). Kind of experiment: Inhibition of human alpha3beta2 nAChR expressed in Xenopus laevis oocytes assessed as inhibition of ACh-evoked currents at 100 nM by two-electrode voltage clamp assay. In kind it is cell-based.
Experiment [9] concerns the target T5, Neuronal acetylcholine receptor; alpha4/beta2 (Homo sapiens) (UniProt P17787+P43681). In words: Inhibition of human alpha4beta2 nAChR expressed in Xenopus laevis oocytes assessed as inhibition of ACh-evoked currents at 100 nM by two-electrode voltage clamp assay. In kind it is cell-based.
For experiment [10], the target named is T6, Neuronal acetylcholine receptor; alpha3/beta4 (Homo sapiens) (UniProt P30926+P32297). In words: Inhibition of human alpha3beta4 nAChR expressed in Xenopus laevis oocytes assessed as inhibition of ACh-evoked currents at 100 nM by two-electrode voltage clamp assay. In kind it is cell-based.
Experiment [11] deals with T4, Neuronal acetylcholine receptor; alpha3/beta2 (Homo sapiens). Kind of experiment: Inhibition of human alpha3beta2 nAChR expressed in Xenopus laevis oocytes assessed as inhibition of ACh-evoked currents at 1 uM by two-electrode voltage clamp assay relative to control. In kind it is cell-based.
Experiment [12] has as its target T5, Neuronal acetylcholine receptor; alpha4/beta2 (Homo sapiens). Kind of experiment: Inhibition of human alpha4beta2 nAChR expressed in Xenopus laevis oocytes assessed as inhibition of ACh-evoked currents at 1 uM by two-electrode voltage clamp assay. In kind it is cell-based.
For experiment [13], the target named is T6, Neuronal acetylcholine receptor; alpha3/beta4 (Homo sapiens). In words: Inhibition of human alpha3beta4 nAChR expressed in Xenopus laevis oocytes assessed as inhibition of ACh-evoked currents at 1 uM by two-electrode voltage clamp assay. In kind it is cell-based.
In experiment [14] the target is T3, Neuronal acetylcholine receptor; alpha9/alpha10 (Homo sapiens). In words: Inhibition of human alpha9alpha10 nAChR expressed in Xenopus laevis oocytes assessed as inhibition of ACh-evoked currents at 100 nM by two-electrode voltage clamp assay. In kind it is cell-based.
Experiment [15] has the same target. In words: Inhibition of human alpha9alpha10 nAChR expressed in Xenopus laevis oocytes assessed as inhibition of ACh-evoked currents at 1 uM by two-electrode voltage clamp assay. In kind it is cell-based.

Structures are written as SMILES. Activity calls are given as the source filed them. No cut-off for these calls is given here. Numbered stars: 1 amine (or outer) side, 2 acyl side, 3 side chain; on linkers, the order of the positions; unused ones are H or OH. Bridge positions count the residues as written; N and C are the ends. Square brackets hold non-standard residues; d marks the D form. Peptide text beside a SMILES is read from it. I, II: the chains in the order shown. ξ: configuration not given here. X1 = O=C(CCOCCOCCOCCOCCOCCOCCOCCOCCOCCn1cc(CCCC(=O)[*:2])nn1)[*:1]; ξK = NCCCCC(N)C(=O)O

T1 sequence (P36544 whole entry): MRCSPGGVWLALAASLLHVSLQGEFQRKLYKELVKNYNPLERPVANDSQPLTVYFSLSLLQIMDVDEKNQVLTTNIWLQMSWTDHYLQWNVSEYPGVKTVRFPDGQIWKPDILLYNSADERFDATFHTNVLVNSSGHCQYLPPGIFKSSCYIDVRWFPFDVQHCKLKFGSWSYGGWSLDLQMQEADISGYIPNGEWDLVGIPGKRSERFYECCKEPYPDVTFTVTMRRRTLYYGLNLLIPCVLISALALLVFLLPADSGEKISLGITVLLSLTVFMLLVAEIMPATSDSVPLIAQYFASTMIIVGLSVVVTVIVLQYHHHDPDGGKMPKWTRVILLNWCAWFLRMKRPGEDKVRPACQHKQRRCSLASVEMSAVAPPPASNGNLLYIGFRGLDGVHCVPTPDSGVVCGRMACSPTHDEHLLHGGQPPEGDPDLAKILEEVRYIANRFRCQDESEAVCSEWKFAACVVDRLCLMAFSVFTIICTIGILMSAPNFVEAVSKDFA

One may read the IC50 as the concentration that inhibits the measured activity by half. Consider `CC(C)C[C@@H]1NC(=O)[C@H](CCC(=O)O)NC(=O)[C@@H]2CCCN2C(=O)[C@H](Cc2cnc[nH]2)NC(=O)[C@H](CC(N)=O)NC(=O)[C@H](C(C)C)NC(=O)[C@H](CO)NC(=O)[C@@H]2CSSC[C@H](NC(=O)CN)C(=O)N[C@@H](CSSC[C@@H](C(N)=O)NC1=O)C(=O)N[C@@H](CO)C(=O)N[C@@H](Cc1cnc[nH]1)C(=O)N1CCC[C@H]1C(=O)N[C@@H](C)C(=O)N2` (H-GCCSHPACSVNHPELC-NH2; disulfide 2-8, 3-16), for which the IC50 in [1] was greater than 10000 nM.

Take `N=C(N)NCCC[C@H](NC(=O)[C@@H]1CSSC[C@@H]2NC(=O)[C@@H](NC(=O)CN)CSSC[C@H](NC(=O)[C@H](CCCNC(=N)N)NC(=O)[C@@H]3CCCN3C(=O)[C@H](CC(=O)O)NC(=O)[C@H](CO)NC2=O)C(=O)N[C@@H](CCCNC(=N)N)C(=O)N[C@@H](Cc2ccc(O)cc2)C(=O)N[C@@H](CCCNC(=N)N)C(=O)N1)C(=O)O`: the IC50 in experiment [2] was 4660 nM.

As a reminder, the inhibition is the change of the read-out against control, counted positive when it falls. Take `CC(C)C[C@@H]1NC(=O)[C@H](CCC(=O)O)NC(=O)[C@@H]2CCCN2C(=O)[C@H](Cc2cnc[nH]2)NC(=O)[C@H](CC(N)=O)NC(=O)[C@H](C(C)C)NC(=O)[C@H](CO)NC(=O)[C@@H]2CSSC[C@H](NC(=O)CNC(=O)CCOCCOCCOCCOCCOCCOCCOCCOCCOCCn3cc(CCCC(=O)NCCCCC(NC(=O)CCCc4cn(CCOCCOCCOCCOCCOCCOCCOCCOCCOCCC(=O)NCC(=O)N[C@H]5CSSC[C@@H]6NC(=O)[C@H](C)NC(=O)[C@@H]7CCCN7C(=O)[C@H](Cc7cnc[nH]7)NC(=O)[C@H](CO)NC(=O)[C@H](CSSC[C@@H](C(N)=O)NC(=O)[C@H](CC(C)C)NC(=O)[C@H](CCC(=O)O)NC(=O)[C@@H]7CCCN7C(=O)[C@H](Cc7cnc[nH]7)NC(=O)[C@H](CC(N)=O)NC(=O)[C@H](C(C)C)NC(=O)[C@H](CO)NC6=O)NC5=O)nn4)C(=O)NCC(=O)N[C@@H](CCCNC(=N)N)C(=O)N[C@@H](CCCNC(=N)N)C(=O)N[C@@H](CCCNC(=N)N)C(=O)N[C@@H](CCCNC(=N)N)C(=O)NCC(N)=O)nn3)C(=O)N[C@@H](CSSC[C@@H](C(N)=O)NC1=O)C(=O)N[C@@H](CO)C(=O)N[C@@H](Cc1cnc[nH]1)C(=O)N1CCC[C@H]1C(=O)N[C@@H](C)C(=O)N2` (some centres undefined) (I: GCCSHPACSVNHPELC-NH2 / II: GCCSHPACSVNHPELC-NH2 / III: [ξK]GRRRRG-NH2; disulfide I:2-I:8, I:3-I:16, II:2-II:8, II:3-II:16; linker I:N-III:1, II:N-III:N via X1): the results for the IC50 in experiment [3] and in experiment [1] were 1.9 nM and 354 nM, respectively. Further, the inhibition result in [4] and in experiment [5] was “Dose-dependent effect” throughout.

For `CC[C@H](C)[C@@H]1NC(=O)[C@H](CCC(=O)O)NC(=O)[C@@H]2CCCN2C(=O)[C@H](Cc2cnc[nH]2)NC(=O)[C@H](CC(=O)O)NC(=O)[C@H](Cc2ccc(O)cc2)NC(=O)[C@H](CC(N)=O)NC(=O)[C@@H]2CSSC[C@H](NC(=O)CNC(=O)CCOCCOCCOCCOCCOCCOCCOCCOCCOCCn3cc(CCCC(=O)NCCCCC(NC(=O)CCCc4cn(CCOCCOCCOCCOCCOCCOCCOCCOCCOCCC(=O)NCC(=O)N[C@H]5CSSC[C@@H]6NC(=O)[C@H](CCCNC(=N)N)NC(=O)[C@@H]7CCCN7C(=O)[C@H](CC(=O)O)NC(=O)[C@H](CO)NC(=O)[C@H](CSSC[C@@H](C(N)=O)NC(=O)[C@H]([C@@H](C)CC)NC(=O)[C@H](CCC(=O)O)NC(=O)[C@@H]7CCCN7C(=O)[C@H](Cc7cnc[nH]7)NC(=O)[C@H](CC(=O)O)NC(=O)[C@H](Cc7ccc(O)cc7)NC(=O)[C@H](CC(N)=O)NC6=O)NC5=O)nn4)C(=O)NCC(=O)N[C@@H](CCCNC(=N)N)C(=O)N[C@@H](CCCNC(=N)N)C(=O)N[C@@H](CCCNC(=N)N)C(=O)N[C@@H](CCCNC(=N)N)C(=O)NCC(N)=O)nn3)C(=O)N[C@@H](CSSC[C@@H](C(N)=O)NC1=O)C(=O)N[C@@H](CO)C(=O)N[C@@H](CC(=O)O)C(=O)N1CCC[C@H]1C(=O)N[C@@H](CCCNC(=N)N)C(=O)N2` (some centres undefined), the IC50 was 266 nM in experiment [3] and greater than 10000 nM in experiment [1]. In addition, the inhibition result in [4] and in experiment [5] was “Dose-dependent effect” in each case.

On to `CC[C@H](C)[C@@H]1NC(=O)[C@H](CCC(=O)O)NC(=O)[C@@H]2CCCN2C(=O)[C@H](Cc2cnc[nH]2)NC(=O)[C@H](CC(=O)O)NC(=O)[C@H](Cc2ccc(O)cc2)NC(=O)[C@H](CC(N)=O)NC(=O)[C@@H]2CSSC[C@H](NC(=O)CN)C(=O)N[C@@H](CSSC[C@@H](C(N)=O)NC1=O)C(=O)N[C@@H](CO)C(=O)N[C@@H](CC(=O)O)C(=O)N1CCC[C@H]1C(=O)N[C@@H](CCCNC(=N)N)C(=O)N2`, for which the IC50 in [3] is 1000 nM; in [1], greater than 10000 nM.

For `C[C@@H]1NC(=O)[C@@H]2CSSC[C@H](NC(=O)CN)C(=O)N[C@@H](CSSC[C@@H](C(N)=O)NC(=O)[C@H](CCCNC(=N)N)NC(=O)[C@H](Cc3c[nH]c4ccccc34)NC1=O)C(=O)N[C@@H](CO)C(=O)N[C@@H](CC(=O)O)C(=O)N1CCC[C@H]1C(=O)N[C@@H](CCCNC(=N)N)C(=O)N2`, the IC50 in experiment [1] is 1000 nM.

Turning to `N=C(N)NCCC[C@@H]1NC(=O)[C@H](Cc2ccc(O)cc2)NC(=O)[C@H](CCCNC(=N)N)NC(=O)[C@@H]2CSSC[C@H](NC(=O)CN)C(=O)N[C@@H](CSSC[C@@H](C(N)=O)NC1=O)C(=O)N[C@@H](CO)C(=O)N[C@@H](CC(=O)O)C(=O)N1CCC[C@H]1C(=O)N[C@@H](CCCNC(=N)N)C(=O)N2` (H-GCCSDPRCRYRC-NH2; disulfide 2-8, 3-12), the figures for the IC50 in experiment [3] and in [1] were 249 nM and greater than 1000 nM, respectively. Moreover, the inhibition in [6] was found to be 20%.

On to `N=C(N)NCCC[C@H](NC(=O)CNC(=O)C(CCCCNC(=O)CCCc1cn(CCOCCOCCOCCOCCOCCOCCOCCOCCOCCC(=O)NCC(=O)N[C@H]2CSSC[C@@H]3NC(=O)[C@H](CCCNC(=N)N)NC(=O)[C@@H]4CCCN4C(=O)[C@H](CC(=O)O)NC(=O)[C@H](CO)NC(=O)[C@H](CSSC[C@@H](C(N)=O)NC(=O)[C@H](CCCNC(=N)N)NC(=O)[C@H](Cc4ccc(O)cc4)NC(=O)[C@H](CCCNC(=N)N)NC3=O)NC2=O)nn1)NC(=O)CCCc1cn(CCOCCOCCOCCOCCOCCOCCOCCOCCOCCC(=O)NCC(=O)N[C@H]2CSSC[C@@H]3NC(=O)[C@H](CCCNC(=N)N)NC(=O)[C@@H]4CCCN4C(=O)[C@H](CC(=O)O)NC(=O)[C@H](CO)NC(=O)[C@H](CSSC[C@@H](C(N)=O)NC(=O)[C@H](CCCNC(=N)N)NC(=O)[C@H](Cc4ccc(O)cc4)NC(=O)[C@H](CCCNC(=N)N)NC3=O)NC2=O)nn1)C(=O)N[C@@H](CCCNC(=N)N)C(=O)N[C@@H](CCCNC(=N)N)C(=O)N[C@@H](CCCNC(=N)N)C(=O)NCC(N)=O` (some centres undefined) (I: GCCSDPRCRYRC-NH2 / II: GCCSDPRCRYRC-NH2 / III: [ξK]GRRRRG-NH2; disulfide I:2-I:8, I:3-I:12, II:2-II:8, II:3-II:12; linker I:N-III:1, II:N-III:N via X1), for which the results for the IC50 in experiment [3], in experiment [1] and in [7] were 38.5 nM, 63.1 nM and 117 nM, respectively. The inhibition entry in [4] was “Dose-dependent effect”; in experiment [5], “Dose-dependent effect”; in experiment [11], 60%. Further, the inhibition entry in experiment [8], in experiment [14] and in experiment [15] was “Active” each time. Also, the inhibition result in experiment [9], in experiment [10], in experiment [12] and in [13] was “inactive” each time.

(Values after ChEMBL document CHEMBL4354859, “Dimerization of α-Conotoxins as a Strategy to Enhance the Inhibition of the Human α7 and α9α10 Nicotinic Acetylcholine Receptors” (J Med Chem, 2020).)
